Values quoted from earlier work, collected in patent publication US11311556B2, “Topical dutasteride emulsions for treating endocrine therapy-induced alopecia” (Varsona Therapeutics, Inc., priority 2020, dated 2022).
Like-named read-outs stand apart in the source and are kept apart here.

Legend:
DHT = settings: oral, subjects with BPH
[1] = 416 men, 12 to 24 weeks

For `C[C@]12C=CC(=O)N[C@@H]1CC[C@@H]1[C@@H]2CC[C@]2(C)[C@@H](C(=O)Nc3cc(C(F)(F)F)ccc3C(F)(F)F)CC[C@@H]12` [oral dutasteride, (5α, 17β)-N-{2,5 bis(trifluoromethyl)phenyl}-3-oxo-4-azaandrost-1-ene-17-carboxamide], the DHT blocked (DHT; 0.5 mg daily dose) is listed as 94.7+/−3.3%, the DHT blocked (DHT; 5 mg daily dose) is listed as 98.4% and the “Hair count results versus oral finasteride” value [1] is listed as “better hair count results than oral finasteride”.
In the case of `CC(C)(C)NC(=O)[C@H]1CC[C@H]2[C@@H]3CC[C@H]4NC(=O)C=C[C@]4(C)[C@H]3CC[C@]12C` [oral finasteride, finasteride], the DHT blocked (DHT; 5 mg daily dose) is given as 70.8+/−18.3%.
